pIC50: −log10 of the molar value. Values after ≈ are worked out from the molar mass of the structure shown.
Columns and labels:
[1] = system: MDA-MB-435; experiment: Cytotoxicity against human MDA-MB-435 cells treated for 72 hrs; assay type: functional, cell-based; settings: MDA-MB-435, 72 h
[2] = system: OVCAR-3; experiment: Cytotoxicity against human OVCAR-3 cells treated for 72 hrs; assay type: functional, cell-based; settings: OVCAR-3, 72 h
[3] = Lipophilicity, logD of compound at pH 7.4; assay type: physicochemical; settings: buffer
[4] = Relative solubility of compound by measuring ratio of solubility of compound to solubility of Eupenifeldin; assay type: physicochemical
[5] = Aqueous solubility of compound; assay type: physicochemical; settings: buffer

| SMILES | logD ([3]; read-out: logD) | Ratio [4] | solubility [5] | logD [3] | pIC50 [1] | pIC50 [2] |
| --- | --- | --- | --- | --- | --- | --- |
| Cc1cc(=O)c(OCc2ccccc2)cc2c1C[C@H]1C[C@H](O)[C@@]3(C)Oc4cc(OCc5ccccc5)c(=O)ccc4C[C@H]3CC(C)(C)/C=C/C[C@]1(C)O2 | 7.5 | 2 10^-4No_unit | – | – | 7.01 | < 6.60 |
| Cc1cc(=O)c(O)cc2c1C[C@H]1C[C@H](OC(=O)CCC(=O)O)[C@@]3(C)Oc4cc(O)c(=O)ccc4C[C@H]3CC(C)(C)/C=C/C[C@]1(C)O2 | 1 | 40 | 66.3 µg/mL (≈ 104 µM) | – | 6.36 | 6.80 |
| Cc1cc(=O)c(OC(=O)N(c2ccccc2)c2ccccc2)cc2c1C[C@H]1C[C@H](O)[C@@]3(C)Oc4cc(OC(=O)N(c5ccccc5)c5ccccc5)c(=O)ccc4C[C@H]3CC(C)(C)/C=C/C[C@]1(C)O2 | – | – | – | 9.8 | < 6.60 | 6.64 |
| CC(=O)O[C@H]1C(=O)[C@@]2(C)[C@H]([C@H](OC(=O)c3ccccc3)[C@]3(O)C[C@H](OC(=O)[C@H](O)[C@@H](NC(=O)c4ccccc4)c4ccccc4)C(C)=C1C3(C)C)[C@]1(OC(C)=O)CO[C@@H]1C[C@@H]2O [PACLITAXEL] | – | – | – | – | – | 10.00 |

Further lines, with some results ahead:

| logD ([3]; read-out: logD) | Ratio [4] | solubility [5] | logD [3] | SMILES | pIC50 [1] | pIC50 [2] |
| --- | --- | --- | --- | --- | --- | --- |
| 5.5 | 4 10^-2No_unit | – | – | CC(=O)Oc1cc2c(ccc1=O)C[C@H]1CC(C)(C)/C=C/C[C@]3(C)Oc4cc(OC(C)=O)c(=O)cc(C)c4C[C@H]3C[C@H](OC(C)=O)[C@@]1(C)O2 | 7.14 | 6.71 |
| 4.6 | 0.2 | – | – | COCCOC(=O)Oc1cc2c(ccc1=O)C[C@H]1CC(C)(C)/C=C/C[C@]3(C)Oc4cc(OC(=O)OCCOC)c(=O)cc(C)c4C[C@H]3C[C@H](O)[C@@]1(C)O2 | 7.00 | < 6.60 |
| 4.3 | 0.4 | – | – | COCCOC(=O)Oc1cc2c(c(C)cc1=O)C[C@H]1C[C@H](O)[C@@]3(C)Oc4cc(O)c(=O)ccc4C[C@H]3CC(C)(C)/C=C/C[C@]1(C)O2 | 7.51 | 7.12 |
| 5.3 | 5 10^-3No_unit | – | – | Cc1cc(=O)c(OC(=O)C2CC2)cc2c1C[C@H]1C[C@H](O)[C@@]3(C)Oc4cc(OC(=O)C5CC5)c(=O)ccc4C[C@H]3CC(C)(C)/C=C/C[C@]1(C)O2 | 7.11 | < 6.60 |
| 5.9 | 2 10^-2No_unit | – | – | CCN(CC)C(=O)Oc1cc2c(ccc1=O)C[C@H]1CC(C)(C)/C=C/C[C@]3(C)Oc4cc(OC(=O)N(CC)CC)c(=O)cc(C)c4C[C@H]3C[C@H](O)[C@@]1(C)O2 | < 6.60 | 6.72 |
| 4.6 | 0.1 | – | – | CC(=O)Oc1cc2c(ccc1=O)C[C@H]1CC(C)(C)/C=C/C[C@]3(C)Oc4cc(OC(C)=O)c(=O)cc(C)c4C[C@H]3C[C@H](O)[C@@]1(C)O2 | 7.28 | < 6.60 |
| 6.9 | 6 10^-3No_unit | – | – | Cc1cc(=O)c(OC(=O)C(C)(C)C)cc2c1C[C@H]1C[C@H](O)[C@@]3(C)Oc4cc(OC(=O)C(C)(C)C)c(=O)ccc4C[C@H]3CC(C)(C)/C=C/C[C@]1(C)O2 | 7.10 | 6.85 |

Source: ChEMBL document CHEMBL5584257, “Semisynthetic derivatives of the fungal metabolite eupenifeldin via targeting the tropolone hydroxy groups” (Bioorg Med Chem Lett, 2024)
